Data on 13 substances can be found in patent publication US20020049173A1, “Alteration of cellular behavior by antisense modulation of mRNA processing” (priority 1999, published 2002).

In the oligonucleotide strings, read from the 5' end, every base follows the letter of its sugar. An asterisk marks phosphorothioate; unmarked linkages are phosphodiester. Other units and linkages are bracketed, terminal groups are in braces. A string of capitals states the bases alone. e = 2'-O-(2-methoxyethyl) (MOE); [5mC] = 5-methylcytosine; d = 2'-deoxy (DNA)

One data set deals with murine IL-5 receptor α mRNA, membrane form. As to the kind of experiment: Membrane IL-5 receptor α mRNA by Northern blot in BCL1 cells. Format: cell-based, mouse. The conditions noted are these: BCL1 cells, 10 μM, 24 hours; uniform 2′-MOE. The text has this:
(§1) Murine BCL1 cells were chosen for screening antisense oligonucleotides targeted to murine IL-5 receptor α. These are B-cell leukemia cells derived from a spontaneously arising tumor of BALB/c origin, and proliferate in response to murine or human IL-5. This is a CD5+line which resembles a subset of human chronic lymphocytic leukemia tumors and secretes IgM upon lipopolysaccharide stimulation. Cells were obtained from the American Type Culture Collection and cultured in RPMI 1640 medium supplemented with 10% heat-inactivated fetal bovine serum (Sigma Chemical Co., St. Louis, Mo.), 10 mM Hepes, pH 7.2, 50 μM 2-ME, 2 mM L-glutamine, 100 U/ml penicillin and 100 μg/ml streptomycin (Gibco, Grand Island, N.Y.).
(§2) The effect of these compounds on both membrane and soluble forms of murine IL-5 receptor α were measured and are shown in Table 1B. Oligonucleotides were screened in BCL1 cells at a dose of 10 μM and IL-5 receptor α mRNA was measured by Northern blot. Percent inhibition is compared to untreated (no oligo) control.
(§3) Total BCL1 cellular RNA was isolated using the RNeasy™ kit (Qiagen, Santa Clara Calif.) . Northern blotting was performed using standard methods. The cDNA probes were generated from oligonucleotides matching the exon sequences of either exons 2, 8, 9 or 10. Signals were quantitated using a Molecular Dynamics PhosphorImager.
Take “21757 (eT*eG*eA*eG*eA*eA*eG*eA*eT*eT*eA*eA*e[5mC]*eA*eA*eG*eA*e[5mC]*eG*eA; splice-switching) [compound 21757]”: the “% control membrane IL-5 Rα” value was found to be 19% and the “% inhib'n membrane IL-5 Rα” value is reported as 81%.

For “21758 (eT*eG*e[5mC]*eA*eG*eA*eT*eG*eA*eG*eT*eG*eA*eG*eA*eA*eG*eA*eT*eT; splice-switching) [compound 21758]”, the “% control membrane IL-5 Rα” value turned out to be 31% and the “% inhib'n membrane IL-5 Rα” value was found to be 69%.

“21759 (eA*e[5mC]*eT*e[5mC]*eT*eG*e[5mC]*eA*eG*eA*eT*eG*eA*eG*eT*eG*eA*eG*eA*eA; splice-switching) [compound 21759]”: the “% control membrane IL-5 Rα” value turned out to be 34% and the “% inhib'n membrane IL-5 Rα” value was 66%.

“21760 (e[5mC]*eT*eA*e[5mC]*eA*e[5mC]*eT*e[5mC]*eT*eG*e[5mC]*eA*eG*eA*eT*eG*eA*eG*eT*eG) [compound 21760]”: the “% control membrane IL-5 Rα” value is 55% and the “% inhib'n membrane IL-5 Rα” value is given as 45%.

Staying with this data set, now noted: BCL1 cells, 10 μM, Northern blot, compared to untreated control; 2′-MOE gapmers.
Regarding “18004 (TGTTGGGAGCACAATGAGAT; antisense; listed as DNA, chemistry not fully specified) [compound 18004]”, the “% inhibition of membrane IL-5 Rα” value was determined as 10%.

As to “18005 (AGCAGGCAGCTGTTGGGAGC; antisense; listed as DNA, chemistry not fully specified) [compound 18005]”, the “% inhibition of membrane IL-5 Rα” value is on record as 55%.

“18006 (TGAGAAGATTAACAAGACGA; antisense; listed as DNA, chemistry not fully specified) [compound 18006]”: the “% inhibition of membrane IL-5 Rα” value was 59%.

“18007 (eT*eG*e[5mC]*eA*eG*dA*dT*dG*dA*dG*dT*dG*dA*dG*dA*eA*eG*eA*eT*eT; antisense) [compound 18007]”: the “% inhibition of membrane IL-5 Rα” value is given as 65%.

Regarding “18008 (ACTCTGCAGATGAGTGAGAA; antisense; listed as DNA, chemistry not fully specified) [compound 18008]”, the “% inhibition of membrane IL-5 Rα” value is on record as 75%.

The subject of a further data set is human bcl-xl mRNA. Kind of data set: bcl-xl mRNA in A549 cells, RIBOQUANT RNase protection. Format: cell-based. To be noted: 200 nM oligonucleotide (Table 15). The text has this:
(§4) In accordance with the present invention, a series of oligonucleotides were designed to target different regions of human bcl-x RNA, using published sequences (Boise, L. H., et al., 1993, Cell 74, 597-608; Genbank Accession No. L20121, locus name “HSBCLXL,” incorporated herein as SEQ ID NO: 39). Antisense oligonucleotides were designed to target areas of exon 1 and exon 2 of human bcl-x, particularly around the exon 1/exon 2 splice site and in sequence regions present in bcl-xl but not in bcl-xs. All backbone linkages are phosphorothioates; All 2′MOE cytosines are 5-methylcytosines.
(§5) Oligonucleotides were evaluated for their respective effects on bcl-xs and bcl-xl3 mRNA levels in A549 cells along with total bcl-x mRNA levels, using the RIBOQUANT™ RNase protection kit (Pharmingen, San Diego Calif.). All assays were performed according to manufacturer's protocols.
(§6) A “walk” was done in this region with 20mer 2′-MOE phosphorothioate oligonucleotides targeted to sequences whose 5′ ends were 24, 26, 29, 31, 33, 37, 39, 41, 43, 44, 45 and 47 bases upstream of the splice site. These oligonucleotides were screened as before at a dose of 200 nM oligonucleotide for effect on short and long bcl-x transcripts.
“26067 (GGATCCAAGGCTCTAGGTGG; all 2'-MOE, all phosphorothioate, methylation of C not given here) [compound 26067]”: the “% CONTROL bcl-xl” value was 32%.

As for “26069 (antisense TCTCCTGGATCCAAGGCTCT; all 2'-MOE, all phosphorothioate, methylation of C not given here) [compound 26069]”, the “% CONTROL bcl-xl” value is listed as 40%.

As to “26070 (antisense GTTCTCCTGGATCCAAGGCT; all 2'-MOE, all phosphorothioate, methylation of C not given here) [compound 26070]”, the “% CONTROL bcl-xl” value amounted to 37%.

Another data set concerns murine IL-5 receptor α mRNA, soluble form. Kind of data set: Soluble IL-5 receptor α mRNA by Northern blot in BCL1 cells. Format: cell-based, mouse. The conditions noted are these: BCL1 cells, 10 μM, 24 hours; uniform 2′-MOE.
Source text: as §1, §2, §3
On to “21757 (eT*eG*eA*eG*eA*eA*eG*eA*eT*eT*eA*eA*e[5mC]*eA*eA*eG*eA*e[5mC]*eG*eA; splice-switching) [compound 21757]”, for which the “% control soluble IL-5 Rα” value amounted to 144%.

Consider “21758 (eT*eG*e[5mC]*eA*eG*eA*eT*eG*eA*eG*eT*eG*eA*eG*eA*eA*eG*eA*eT*eT; splice-switching) [compound 21758]”, for which the “% control soluble IL-5 Rα” value was 116%.

Take “21759 (eA*e[5mC]*eT*e[5mC]*eT*eG*e[5mC]*eA*eG*eA*eT*eG*eA*eG*eT*eG*eA*eG*eA*eA; splice-switching) [compound 21759]”: the “% control soluble IL-5 Rα” value was determined as 134%.

As to “21760 (e[5mC]*eT*eA*e[5mC]*eA*e[5mC]*eT*e[5mC]*eT*eG*e[5mC]*eA*eG*eA*eT*eG*eA*eG*eT*eG) [compound 21760]”, the “% control soluble IL-5 Rα” value was determined as 116%.

Staying with this data set, now noted: BCL1 cells, 10 μM, Northern blot, compared to untreated control; 2′-MOE gapmers.
On to “18004 (TGTTGGGAGCACAATGAGAT; antisense; listed as DNA, chemistry not fully specified) [compound 18004]”, for which the “% inhibition of soluble IL-5 Rα” value was 20%.

As for “18005 (AGCAGGCAGCTGTTGGGAGC; antisense; listed as DNA, chemistry not fully specified) [compound 18005]”, the “% inhibition of soluble IL-5 Rα” value stood at 59%.

On to “18006 (TGAGAAGATTAACAAGACGA; antisense; listed as DNA, chemistry not fully specified) [compound 18006]”, for which the “% inhibition of soluble IL-5 Rα” value came out at 65%.

Take “18007 (eT*eG*e[5mC]*eA*eG*dA*dT*dG*dA*dG*dT*dG*dA*dG*dA*eA*eG*eA*eT*eT; antisense) [compound 18007]”: the “% inhibition of soluble IL-5 Rα” value was determined as 65%.

For “18008 (ACTCTGCAGATGAGTGAGAA; antisense; listed as DNA, chemistry not fully specified) [compound 18008]”, the “% inhibition of soluble IL-5 Rα” value is recorded as 75%.

Another data set has as its system human bcl-xs mRNA. As to the kind of experiment: bcl-xs mRNA in A549 cells, RIBOQUANT RNase protection. Format: cell-based. To be noted: 200 nM oligonucleotide (Table 15).
Source text: as §4, §5, §6
With “26067 (GGATCCAAGGCTCTAGGTGG; all 2'-MOE, all phosphorothioate, methylation of C not given here) [compound 26067]”, the “% CONTROL bcl-xs” value is 211%.

Take “26069 (antisense TCTCCTGGATCCAAGGCTCT; all 2'-MOE, all phosphorothioate, methylation of C not given here) [compound 26069]”: the “% CONTROL bcl-xs” value was determined as 232%.

As for “26070 (antisense GTTCTCCTGGATCCAAGGCT; all 2'-MOE, all phosphorothioate, methylation of C not given here) [compound 26070]”, the “% CONTROL bcl-xs” value was determined as 242%.

In another data set the test system is human bcl-x mRNA. Kind of data set: Total bcl-x mRNA and bcl-xs/bcl-xl ratio in A549 cells, RNase protection. Format: cell-based. The conditions noted are these: A549 cells.
Source text: as §4, §5, §6
In the case of “23172 (GTTCCTGGCCCTTTCGGCTC; listed as DNA, chemistry not fully specified) [compound 23172]”, the “bcl-xs/bcl-xl* (change from the no-oligo ratio 17.56, which reads 1)” value turned out to be 1.1.

Still in this data set, the particulars now being: A549 cells, 200 nM oligonucleotide (Table 15).
Consider “26067 (GGATCCAAGGCTCTAGGTGG; all 2'-MOE, all phosphorothioate, methylation of C not given here) [compound 26067]”, for which the bcl-xs/bcl-xl is reported as 6.59.

Regarding “26069 (antisense TCTCCTGGATCCAAGGCTCT; all 2'-MOE, all phosphorothioate, methylation of C not given here) [compound 26069]”, the bcl-xs/bcl-xl came out at 5.80.

Turning to “26070 (antisense GTTCTCCTGGATCCAAGGCT; all 2'-MOE, all phosphorothioate, methylation of C not given here) [compound 26070]”, the bcl-xs/bcl-xl was determined as 6.54.
